Assay [1] has as its system mouse hippocampus. Kind of assay: Neural progenitor amplification (BrdU incorporation) after intracerebroventricular osmotic pump infusion. Type of assay: in vivo. The settings on record: 1 mM intracerebroventricular, 0.5 μl per hour, 7 days, compared to allopurinol or vehicle alone. The protocol:
To assess the effects of febuxostat on neural progenitor amplification, febuxostat or allopurinol (1 mM) were intracerebroventricularly delivered via osmotic pump infusion (0.5 μl per hour) to mouse brains for 7 days. Control subjects received vehicle alone. BrdU was administered in four injections on day 6, and brain tissues were harvested on day 7. Neural progenitor amplification was measured by quantifying the number of BrdU-positive cells in the subgranular zone (SGZ) of hippocampal tissue sections.

The test system of assay [2] is mouse hippocampus. The assay is described as follows: Neuronal differentiation (DCX with BrdU) after intracerebroventricular osmotic pump infusion. Type of assay: in vivo. To be noted: 1 mM intracerebroventricular 7 days, tissue harvested day 14, compared to allopurinol or vehicle alone. Here is the method: To assess the effects of febuxostat on adult neurogenesis, febuxostat or allopurinol (1 mM) were delivered to mouse brains for 7 days as described above. BrdU was administered in eight injections over days 2-3. The osmotic pump was removed on day 7 and brain tissues were harvested on day 14. The hippocampal slices were subjected to immunohistochemical analysis for the detection of BrdU and doublecortin (DCx) (newly formed neuron marker) stained cells in the subgranular zone of the hippocampus.

For assay [3], the system named is hippocampus of mice subjected to chronic restraint stress. Kind of assay: Neural progenitor amplification (BrdU-positive cells) in mice under chronic restraint stress. The settings on record: for neuron progenitor amplification (BrdU incorporation): vs allopurinol, vehicle and unrestrained controls, n=3 mice. Format: in vivo, mouse. The protocol:
(§1) Murine subjects underwent CRS on day zero, with febuxostat (1 mg kg^−1 d^−1) allopurinol (20 mg kg^−1 d^−1), Rhy37 (10 mg kg^−1 d^−1), or vehicle alone, administered daily intragastrically beginning on day 15. BrdU was administered on day 36, and brain tissues harvested on day 37 or 50. Control subjects remained free throughout the trial period. Neural progenitor amplification was measured by quantifying the number of BrdU-positive cells in hippocampal tissue sections. […] Results were compared using a one-way ANOVA test.

Assay [4] shares this test system. The assay is described as follows: Neuronal differentiation (DCX+/BrdU-positive cells) in mice under chronic restraint stress. Format: in vivo, mouse. Here is the method:
as §1

The mark [5] stands for this setting: CRS mice, daily intragastric from day 15, harvest day 37 or 50, compared to allopurinol or vehicle alone.

Molecules are shown by their SMILES. “Also recorded” adds a separate entry of the source.

For `Cc1nc(-c2ccc(OCC(C)C)c(C#N)c2)sc1C(=O)O` [febuxostat, 2-(3-cyano-4-isobutoxyphenyl)-4-methyl-1,3-thiazole-5-carboxylic acid], in the assay on mouse hippocampus [1], the “neural progenitor amplification (BrdU-positive cells in the subgranular zone)” value was “promotes neural progenitor amplification; also recorded: increased levels”. Besides, in the assay with mouse hippocampus [2], the “neural differentiation (BrdU and doublecortin stained cells in the subgranular zone)” value is reported as “neuronal differentiation; also recorded: increased levels”. The “neuron progenitor amplification (BrdU incorporation)” value in assay [3] (37 days of chronic restraint stress) and in assay [3] (50 days of chronic restraint stress) was “promotes neuron progenitor amplification” each time. The “neural progenitor amplification (BrdU-positive cells)” value in assay [3] (setting [5]) was “increased levels”. Also, the “neuronal differentiation (DCX expression with BrdU incorporation)” value in assay [4] (50 days of chronic restraint stress, vs allopurinol, vehicle and unrestrained controls) is “promotes neuronal differentiation”. For the same molecule, in assay [4] (setting [5]), the “neural differentiation (DCX+/BrdU-positive cells)” value is on record as “increased levels”.

Values taken from US11607403B2, “Methods and compositions for promoting adult neurogenesis” (Morningside Ventures Limited, priority 2015, dated 2023).
